In patent US20250388605A1, “HETEROBIFUNCTIONAL COMPOUNDS AND METHODS OF TREATING DISEASE” (Halda Therapeutics OpCo, Inc., priority 2022, published 2025):

Legend:
VCaP cells = assay: Cellular growth inhibition assay for VCaP cells, CellTiter-Glo; type: cell-based, human; conditions: 72 hours
Method in brief: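 GI50 values come from four-parameter curve fits of luminescence data normalized to a zero baseline. Compound, in medium with 0.5% DMSO, was added one day after plating and left for 72 h before CellTiter-Glo 2.0 addition.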

T47D cells = assay: Cellular Growth Inhibition Assay for T47D Cells (CellTiter-Glo); type: cell-based, human; conditions: 72 hours
Procedure: Exemplary compounds were tested for ability to inhibit the proliferation of T47D cells. T47D cells are a commercially available human breast cancer cell line.
T47D cells were purchased from American Type Cell Culture (ATCC Cat #HTB-133) and then seeded on poly-D-lysine coated, black clear-bottom 384-well plates at 3000/well in 25 μL Dulbecco's Modified Eagle Medium (DMEM) supplemented with 10% w/w Fetal bovine serum (FBS), 0.2 units/mL recombinant human insulin (Gibco Cat #12585014), and 1% w/w Pen-Strep. Pen-Strep is a commercially available mixture of penicillin G and streptomycin, which is used in mammalian cell culture media to prevent bacterial contamination. Dulbecco's Modified Eagle Medium (DMEM) supplemented with 10% w/w fetal bovine serum (FBS), 0.2 units/mL recombinant human insulin, and 1% w/w Pen-Strep is herein referred to as Treatment Medium. Following seeding of cells in the plates, the plates were spun at 300×g for 30 seconds, then equilibrated to room temperature for 30 minutes, and then deposited in a humidified tissue culture incubator maintained at 37° C. with 5% CO2.
At 24 hours after seeding of the cells, dilutions of test compound were prepared in DMSO and dissolved in Treatment Medium, to achieve a final DMSO concentration of 0.5% w/w, thereby providing the Test Compound Solution. A 25 μL aliquot of the Test Compound Solution was added to cells in the well plates. An equal volume of a solution containing DMSO and Treatment Medium was used as a negative control. Following treatment of cells with Test Compound Solution or said equal volume of a solution containing DMSO and Treatment Medium, the plates were spun at 300×g for 30 seconds, and then left in an incubator for 72 hours.
At the end of the treatment duration, cell viability was quantified with CellTiter-Glo 2.0 reagent (Promega Cat #G9243). For this purpose, plates were equilibrated to room temperature for 30 minutes, and then 25 μL of CellTiter-Glo 2.0 reagent was added to cells in the plate wells. Plates were then agitated on a shaker for two minutes at 500 rpm and subsequently incubated at room temperature for 10 minutes. Following incubation, the plates were spun at 3000×g for 30 seconds, then sealed with an optical adhesive cover, and luminescence readings were measured with an EnVision Plate Reader (Perkin Elmer).
Data was normalized using zero luminescence for baseline. A four-parameter non-linear regression curve fit was applied to dose-response data in GraphPad Prism data analysis software to determine the half-maximal growth inhibitory concentration (GI50) for each test compound.

[1] = system: T-Rex 293 cell line SC3 cells having increased expression of androgen receptor protein due to exposure to doxycycline; assay: Cellular growth inhibition, T-Rex 293 SC3 cells with doxycycline (increased androgen receptor expression), CellTiter-Glo; type: cell-based; conditions: T-Rex 293 SC3 cells with 10 ng/mL doxycycline (increased androgen receptor expression), 72 hours, CellTiter-Glo 2.0
Method in brief: (§1)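 Growth inhibition is measured in an inducible AR-expressing T-Rex 293 clone, SC3, cultured with or without 10 ng/mL doxycycline in hormone-depleted medium. Test compounds are applied for 72 hours. GI50 values derive from CellTiter-Glo 2.0 signal fitted by four-parameter regression.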

[2] = system: T-Rex 293 cell line SC3 cells lacking increased expression of androgen receptor protein; assay: Cellular growth inhibition, T-Rex 293 SC3 cells without doxycycline (no increased androgen receptor expression), CellTiter-Glo; type: cell-based; conditions: T-Rex 293 SC3 cells not exposed to doxycycline (no increased androgen receptor expression), 72 hours
Method in brief: as §1

| SMILES | GI50 (VCaP cells) | GI50 (T47D cells) | GI50 (T47D cells; Homo sapiens) | other results |
| --- | --- | --- | --- | --- |
| CCS(=O)(=O)c1ccc(Oc2cccc(CCCC3CCN(c4ncc(C(=O)N[C@H]5C(C)(C)[C@H](Oc6ccc(C#N)c(Cl)c6)C5(C)C)cn4)CC3)c2)c(-c2cn(C)c(=O)c3[nH]ccc23)c1 [Compound I-248] | 500 to 1500 nM | < 500 nM |  |  |
| Cn1cc(-c2cc(C(C)(C)O)ccc2OC(CCCCN2CCN(c3ncc(C(=O)N[C@H]4C(C)(C)[C@H](Oc5ccc(C#N)c(Cl)c5)C4(C)C)cn3)CC2)C2CC2)c2cc[nH]c2c1=O (stereo partly shown) [Compound I-252] | < 500 nM | 500 to 1500 nM |  |  |
| CCS(=O)(=O)c1ccc(Oc2cccc(CCN3CC4(C3)CN(c3ncc(C(=O)N[C@H]5C(C)(C)[C@H](Oc6ccc(C#N)c(Cl)c6)C5(C)C)cn3)CCO4)c2F)c(-c2cn(C)c(=O)c3[nH]ccc23)c1 [Compound I-264] |  |  | < 500 nM | GI50 [1]: < 500 nM; GI50 (VCaP cells; Homo sapiens): < 500 nM; GI50 [2]: < 500 nM |
| Cn1cc(-c2cc(C(C)(C)O)ccc2Oc2cccc(OC3CCC4(CC3)CCN(c3ncc(C(=O)N[C@H]5C(C)(C)[C@H](Oc6ccc(C#N)c(Cl)c6)C5(C)C)cn3)CC4)c2)c2cc[nH]c2c1=O [Compound I-314] | < 500 nM | 500 to 1500 nM |  | GI50 [1]: < 500 nM; GI50 [2]: > 3000 nM |
| CCS(=O)(=O)Nc1ccc(Oc2cccc(OC3CCN(C4CCN(c5ncc(C(=O)N[C@H]6C(C)(C)[C@H](Oc7ccc(C#N)c(Cl)c7)C6(C)C)cn5)CC4)C3)c2)c(-c2cn(C)c(=O)c3[nH]ccc23)c1 (stereo partly shown) [Compound I-43] |  |  | < 500 nM | GI50 [1]: < 500 nM; GI50 (VCaP cells; Homo sapiens): < 500 nM; GI50 [2]: 1500 to 3000 nM |
| CCS(=O)(=O)Nc1ccc(Oc2cccc(C3CC(N(C)C4CCN(c5ncc(C(=O)N[C@H]6C(C)(C)[C@H](Oc7ccc(C#N)c(Cl)c7)C6(C)C)cn5)CC4)C3)c2)c(-c2cn(C)c(=O)c3[nH]ccc23)c1 (stereo partly shown) [Compound I-129] | < 500 nM | < 500 nM |  | GI50 [1]: < 500 nM; GI50 [2]: < 500 nM |
| CCS(=O)(=O)c1ccc(OC(CCCCCN2CCN(c3ncc(C(=O)N[C@H]4C(C)(C)[C@H](Oc5ccc(C#N)c(Cl)c5)C4(C)C)cn3)CC2)C2CC2)c(-c2cn(C)c(=O)c3[nH]ccc23)c1 (stereo partly shown) [Compound I-235] | < 500 nM | < 500 nM |  | GI50 [1]: < 500 nM; GI50 [2]: < 500 nM |
| Cn1cc(-c2cc(C(C)(C)O)ccc2Oc2ccc(CC3CC(C4CCCN(c5ncc(C(=O)N[C@H]6C(C)(C)[C@H](Oc7ccc(C#N)c(Cl)c7)C6(C)C)cn5)C4)C3)cc2)c2cc[nH]c2c1=O (single isomer, unassigned) [Compound I-347] | < 500 nM | < 500 nM |  | GI50 [1]: > 3000 nM; GI50 [2]: > 3000 nM |
| Cn1cc(-c2cc(C(C)(C)O)ccc2OC(C)(C)CN2CC(OC3CCN(c4ncc(C(=O)N[C@H]5C(C)(C)[C@H](Oc6ccc(C#N)c(Cl)c6)C5(C)C)cn4)CC3)C2)c2cc[nH]c2c1=O [Compound I-254, N-[3-(3-chloro-4-cyano-phenoxy)-2,2,4,4-tetramethyl-cyclobutyl]-2-[4-[1-[2-[4-(1-hydroxy-1-methyl-ethyl)-2-(6-methyl-7-oxo-1H-pyrrolo[2,3-c]pyridin-4-yl)phenoxy]-2-methyl-propyl]azetidin-3-yl]oxy-1-piperidyl]pyrimidine-5-carboxamide] |  |  | > 3000 nM | GI50 (VCaP cells; Homo sapiens): < 500 nM |
| Cn1cc(-c2cc(C(C)(C)O)ccc2Oc2ccc(C3(NCC4CCN(c5ncc(C(=O)N[C@H]6C(C)(C)[C@H](Oc7ccc(C#N)c(Cl)c7)C6(C)C)cn5)CC4)COC3)cc2)c2cc[nH]c2c1=O [Compound I-256] | < 500 nM | < 500 nM |  |  |
| Cn1cc(-c2cc(C(C)(C)O)ccc2Oc2ccc(F)c(CCCN3CC4(C3)CN(c3ncc(C(=O)N[C@H]5C(C)(C)[C@H](Oc6ccc(C#N)c(Cl)c6)C5(C)C)cn3)C4)c2F)c2cc[nH]c2c1=O [Compound I-247] | < 500 nM | < 500 nM |  |  |
| Cn1cc(-c2cc(C(C)(C)O)ccc2Oc2ccc(N3CC(C[C@@H]4[C@H]5CN(c6ncc(C(=O)N[C@H]7C(C)(C)[C@H](Oc8ccc(C#N)c(Cl)c8)C7(C)C)cn6)C[C@@H]45)C3)cc2)c2cc[nH]c2c1=O [Compound I-372] |  |  | < 500 nM |  |
| Cn1cc(-c2cc(C(C)(C)O)ccc2Oc2ccc(CC3CC4(CCN(c5ncc(C(=O)N[C@H]6C(C)(C)[C@H](Oc7ccc(C#N)c(Cl)c7)C6(C)C)cn5)CC4)C3)cc2)c2cc[nH]c2c1=O [Compound I-324] |  |  | < 500 nM |  |
| Cn1cc(-c2cc(C(C)(C)O)ccc2Oc2ccc(N3CC(C4CCN(c5ncc(C(=O)N[C@H]6C(C)(C)[C@H](Oc7ccc(C#N)c(C(F)(F)F)c7)C6(C)C)cn5)CC4)C3)cc2)c2cc[nH]c2c1=O [Compound I-389] |  | < 500 nM |  |  |
| Cn1cc(-c2cc(C(C)(C)O)ccc2Oc2ccc(N3CC4(C3)CN(c3cnc(C(=O)N[C@H]5C(C)(C)[C@H](Oc6ccc(C#N)c(Cl)c6)C5(C)C)cn3)C4)cc2)c2cc[nH]c2c1=O [Compound I-355] |  | < 500 nM |  |  |
| Cn1cc(-c2ccccc2Oc2ccc(CC3CCN(c4cnc(C(=O)N[C@H]5C(C)(C)[C@H](Oc6ccc(C#N)c(Cl)c6)C5(C)C)cn4)CC3)cc2)c2cc[nH]c2c1=O [Compound I-371] |  |  | < 500 nM |  |
| Cn1cc(-c2ccccc2Oc2ccc(N3CC(CC4CCN(c5ccc(C(=O)N[C@H]6C(C)(C)[C@H](Oc7ccc(C#N)c(Cl)c7)C6(C)C)nc5)CC4)C3)cc2)c2cc[nH]c2c1=O [Compound I-364] |  | > 3000 nM |  |  |
| CC(C)c1ccc(Oc2cccc(OCCC3CCN(c4ncc(C(=O)N[C@H]5C(C)(C)[C@H](Oc6ccc(C#N)c(Cl)c6)C5(C)C)cn4)CC3)c2)c(-c2cn(C)c(=O)c3[nH]ccc23)c1 [Compound I-141] |  | 500 to 1500 nM |  |  |
| Cn1cc(-c2ccccc2Oc2ccc(N3CC(CC4CCN(c5ncc(C(=O)N[C@H]6C(C)(C)[C@H](Oc7ccc(C#N)c(Cl)c7)C6(C)C)cn5)CC4)C3)cc2)c2cc[nH]c2c1=O [Compound I-359] |  | > 3000 nM |  |  |
| Cn1cc(-c2cc(C(C)(C)O)ccc2Oc2ccc(N3CC(C4CCN(c5ncc(C(=O)N[C@H]6C(C)(C)[C@H](Oc7ccc(C#N)c(F)c7)C6(C)C)cn5)CC4)C3)cc2)c2cc[nH]c2c1=O [Compound I-390] |  | < 500 nM |  |  |
| Cn1cc(-c2cc(C(C)(C)O)ccc2Oc2ccc(C#CC3CC4(C3)CN(c3ncc(C(=O)NC5C(C)(C)C(Oc6ccc(C#N)c(Cl)c6)C5(C)C)cn3)C4)cc2)c2cc[nH]c2c1=O (stereo not shown) [Compound I-357, N-[3-(3-chloro-4-cyano-phenoxy)-2,2,4,4-tetramethyl-cyclobutyl]-2-[6-[2-[4-[4-(1-hydroxy-1-methyl-ethyl)-2-(6-methyl-7-oxo-1H-pyrrolo[2,3-c]pyridin-4-yl)phenoxy]phenyl]ethynyl]-2-azaspiro[3.3]heptan-2-yl]pyrimidine-5-carboxamide] |  |  | < 500 nM |  |
| Cn1cc(-c2cc(C(C)(C)O)ccc2Oc2ccc(CC3CC4(CCN(c5ccc(C(=O)N[C@H]6C(C)(C)[C@H](Oc7ccc(C#N)c(Cl)c7)C6(C)C)cn5)CC4)C3)cc2)c2cc[nH]c2c1=O [Compound I-380] |  |  | 500 to 1500 nM |  |
| Cn1cc(-c2cc(C(C)(C)O)ccc2OC2CC3CC2CC3OC2CCN(c3ncc(C(=O)N[C@H]4C(C)(C)[C@H](Oc5ccc(C#N)c(Cl)c5)C4(C)C)cn3)CC2)c2cc[nH]c2c1=O (stereo partly shown) [Compound I-253, N-[3-(3-chloro-4-cyano-phenoxy)-2,2,4,4-tetramethyl-cyclobutyl]-2-[4-[5-[4-(1-hydroxy-1-methyl-ethyl)-2-(6-methyl-7-oxo-1H-pyrrolo[2,3-c]pyridin-4-yl)phenoxy]norbornan-2-yl]oxy-1-piperidyl]pyrimidine-5-carboxamide] |  |  | 500 to 1500 nM | GI50 (VCaP cells; Homo sapiens): < 500 nM |
| Cn1cc(-c2cc(C(C)(C)O)ccc2Oc2ccc(CC3CCN(c4ccc(C(=O)N[C@H]5C(C)(C)[C@H](Oc6ccc(C#N)c(Cl)c6)C5(C)C)cn4)CC3)cc2)c2cc[nH]c2c1=O [Compound I-369] |  |  | < 500 nM |  |
| Cn1cc(-c2cc(C(C)(C)O)ccc2Oc2ccc(N3CC(CC4CCN(c5cnc(C(=O)N[C@H]6C(C)(C)[C@H](Oc7ccc(C#N)c(F)c7)C6(C)C)cn5)CC4)C3)cc2)c2cc[nH]c2c1=O [Compound I-383] |  |  | < 500 nM |  |
